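Compound exposure: 48 hours, 5 concentrations, 96-well plates. GI50: concentration for 50% inhibition of growth.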 Active and inactive are the calls of the source. Cut-off read from the data, not from the text of the source: active = GI50 up to about 1.1 µM and inactive = higher.
Assays:
Test in all cases: NCI-60 cell line screen, 48 h
A549 = system: A549
BT-549 = system: BT-549
CCRF-CEM = system: CCRF-CEM
COLO 205 = system: COLO 205
EKVX = system: EKVX
HCT-116 = system: HCT-116
HOP-62 = system: HOP-62
HOP-92 = system: HOP-92
MOLT-4 = system: MOLT-4
NCI-H522 = system: NCI-H522
NCI/ADR-RES = system: NCI/ADR-RES
OVCAR-5 = system: OVCAR-5
SF-268 = system: SF-268
SN12C = system: SN12C
T47D = system: T47D
UACC-62 = system: UACC-62
UO-31 = system: UO-31

Structure (SMILES) | GI50 (A549) | GI50 (BT-549) | GI50 (CCRF-CEM) | GI50 (COLO 205) | GI50 (EKVX) | GI50 (HCT-116) | GI50 (HOP-62) | GI50 (HOP-92) | GI50 (MOLT-4) | GI50 (NCI-H522) | GI50 (NCI/ADR-RES) | GI50 (OVCAR-5) | GI50 (SF-268) | GI50 (SN12C) | GI50 (T47D) | GI50 (UACC-62) | GI50 (UO-31)
COC(=O)c1c(C)c2c(c(C)c1O)OC(=O)c1c(C)cc(O)c(C=O)c1O2 | > 100 µM (inactive) | > 100 µM (inactive) | > 100 µM (inactive) | > 100 µM (inactive) | > 100 µM (inactive) | > 100 µM (inactive) | > 100 µM (inactive) | > 100 µM (inactive) | > 100 µM (inactive) | > 100 µM (inactive) | > 100 µM (inactive) | > 100 µM (inactive) | > 100 µM (inactive) | > 100 µM (inactive) | > 100 µM (inactive) | 45.3 µM (inactive) | –
CN1CCN(C2CC(=O)c3c(Cl)sc(Cl)c32)CC1 (configuration not stated) | 21.3 µM (inactive) | 20.3 µM (inactive) | 3.45 µM (inactive) | 20.7 µM (inactive) | 23.9 µM (inactive) | 6.92 µM (inactive) | 19 µM (inactive) | 10.4 µM (inactive) | 5.48 µM (inactive) | 4.8 µM (inactive) | 16.4 µM (inactive) | 27.7 µM (inactive) | 8.85 µM (inactive) | 13.2 µM (inactive) | 18.5 µM (inactive) | 16.3 µM (inactive) | 7.6 µM (inactive)
O=C1Nc2cccc(Cl)c2/C1=C\c1c(Cl)nc2sccn12 | > 100 µM (inactive) | 28.8 µM (inactive) | > 100 µM (inactive) | > 100 µM (inactive) | 43.3 µM (inactive) | 37.3 µM (inactive) | 15 µM (inactive) | 16.8 µM (inactive) | > 100 µM (inactive) | 50.5 µM (inactive) | 55.1 µM (inactive) | > 100 µM (inactive) | 18.9 µM (inactive) | 29.6 µM (inactive) | 44.6 µM (inactive) | 31.5 µM (inactive) | 27.7 µM (inactive)
COC(=O)/C=C\C(C#N)(C#N)/N=C/c1cccc(OC)c1 | 17.9 µM (inactive) | 7.74 µM (inactive) | 1.72 µM (inactive) | 2.15 µM (inactive) | 11.6 µM (inactive) | 3.44 µM (inactive) | > 42.7 µM (inactive) | 2.3 µM (inactive) | 1.9 µM (inactive) | 1.38 µM (inactive) | 14.4 µM (inactive) | 8.49 µM (inactive) | 17.2 µM (inactive) | 11.9 µM (inactive) | 4.8 µM (inactive) | 15.2 µM (inactive) | 2.74 µM (inactive)
CCOP(=O)(OCC)c1ccc(=O)[nH]c1-c1cccs1 | > 100 µM (inactive) | > 100 µM (inactive) | – | > 100 µM (inactive) | > 100 µM (inactive) | > 100 µM (inactive) | > 100 µM (inactive) | > 100 µM (inactive) | > 100 µM (inactive) | > 100 µM (inactive) | > 100 µM (inactive) | > 100 µM (inactive) | > 100 µM (inactive) | > 100 µM (inactive) | > 100 µM (inactive) | > 100 µM (inactive) | > 100 µM (inactive)
NCCCc1ccc2oc3ccccc3c2c1 | 17.1 µM (inactive) | 19.9 µM (inactive) | 11.6 µM (inactive) | 17.5 µM (inactive) | – | 15.3 µM (inactive) | 17.6 µM (inactive) | 20.4 µM (inactive) | 11.8 µM (inactive) | 17.1 µM (inactive) | 22.3 µM (inactive) | 12.7 µM (inactive) | 19.5 µM (inactive) | 17 µM (inactive) | 17.7 µM (inactive) | 17.7 µM (inactive) | 15.8 µM (inactive)
Cc1ccc(C2NC(=N)NC3=C2CCOc2c3ccc3ccccc23)cc1 (configuration not stated) | 14.6 µM (inactive) | 6.04 µM (inactive) | 0.468 µM (active) | 20.8 µM (inactive) | 7.8 µM (inactive) | 1.93 µM (inactive) | 4.94 µM (inactive) | 5.66 µM (inactive) | 7.26 µM (inactive) | 33.5 µM (inactive) | 15.1 µM (inactive) | 41.6 µM (inactive) | 24.7 µM (inactive) | 6.38 µM (inactive) | 25.2 µM (inactive) | 2.58 µM (inactive) | 42.9 µM (inactive)
COc1c(-c2ccc(O)c(O)c2)oc2c(O)c(O)cc(O)c2c1=O | 69.2 µM (inactive) | > 100 µM (inactive) | 29.2 µM (inactive) | > 100 µM (inactive) | > 100 µM (inactive) | 40.4 µM (inactive) | 26.7 µM (inactive) | > 100 µM (inactive) | 28.6 µM (inactive) | 32.1 µM (inactive) | > 100 µM (inactive) | > 100 µM (inactive) | – | 16.9 µM (inactive) | 67 µM (inactive) | 51.1 µM (inactive) | > 100 µM (inactive)

— ChEMBL document CHEMBL1201862, “PubChem BioAssay data set” (2004)
